Target: PIK3CD (Human) (UniProt O00329)
Assay: Inhibition of PIK3CD Kinase Activity

Chain of PIK3CD (Human) (O00329 whole entry, looked up): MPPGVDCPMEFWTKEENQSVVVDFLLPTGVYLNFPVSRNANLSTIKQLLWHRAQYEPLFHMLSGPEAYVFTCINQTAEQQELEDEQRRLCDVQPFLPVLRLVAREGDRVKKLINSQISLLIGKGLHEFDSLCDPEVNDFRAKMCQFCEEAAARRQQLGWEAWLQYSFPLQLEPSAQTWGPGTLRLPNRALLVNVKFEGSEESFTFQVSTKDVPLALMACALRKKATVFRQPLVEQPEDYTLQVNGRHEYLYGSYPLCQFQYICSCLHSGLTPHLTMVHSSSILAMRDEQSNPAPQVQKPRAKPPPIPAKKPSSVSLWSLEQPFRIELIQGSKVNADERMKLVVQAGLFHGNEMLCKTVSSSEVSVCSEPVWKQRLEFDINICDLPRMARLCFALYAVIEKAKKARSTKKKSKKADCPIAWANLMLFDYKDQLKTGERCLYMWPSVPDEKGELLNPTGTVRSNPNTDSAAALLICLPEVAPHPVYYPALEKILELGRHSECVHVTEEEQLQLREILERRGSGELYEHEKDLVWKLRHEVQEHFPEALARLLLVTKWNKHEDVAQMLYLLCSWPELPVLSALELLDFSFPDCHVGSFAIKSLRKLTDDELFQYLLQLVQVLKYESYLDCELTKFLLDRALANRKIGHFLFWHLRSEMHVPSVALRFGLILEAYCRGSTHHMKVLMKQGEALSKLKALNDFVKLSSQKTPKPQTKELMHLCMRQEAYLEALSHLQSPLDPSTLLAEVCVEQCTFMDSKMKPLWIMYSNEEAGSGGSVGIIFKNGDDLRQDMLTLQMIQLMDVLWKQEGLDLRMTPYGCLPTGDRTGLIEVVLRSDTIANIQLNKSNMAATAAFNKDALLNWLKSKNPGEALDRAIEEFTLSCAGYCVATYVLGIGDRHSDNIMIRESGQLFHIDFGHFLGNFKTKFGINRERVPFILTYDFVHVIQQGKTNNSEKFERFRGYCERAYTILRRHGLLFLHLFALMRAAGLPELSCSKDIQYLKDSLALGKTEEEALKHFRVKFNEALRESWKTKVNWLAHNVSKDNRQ

With `CCn1c(CN2CCN(CC(N)=O)C(C)(C)C2)nc2c(N3CCOCC3)nc(-c3c(F)ccc4[nH]ccc34)nc21` as the compound, how does the IC50 read?
Its IC50 is < 500 nM.

Source: the Kinase Knowledgebase extract (Sharma et al. 2016)
